Test [1] deals with human lung fibroblasts. Put plainly: Serum-induced fibrosis in the biomimetic five-layer lung fibrosis model. The test is classed as cell-based. The settings on record: 2 μM PP2 added to medium 24 hours after assembly and maintained; cells cultured in 2D with 2% serum, then 0.2% in the model.
For test [2], the system named is human lung fibroblasts. Put plainly: Agent-induced injury (fibrotic response) in the five-layer biomimetic lung model. The test is classed as cell-based. The conditions noted are these: SHH added exogenously at 500 ng/ml. As for the experimental part:
In order to test whether the cells in the gel layer can be fed via the channels, one experiment was conducted with only cells in the gel layer (FIG. 39). In particular, human lung fibroblasts and THP-1 macrophage cells were included in the gel layer. The gel was created by adding collegen to physiological aqueous buffer. Additionally or alternatively, any aqueous buffer (e.g., phosphate buffered saline (PBS) buffer) can be used. The aqueous buffer can be kept at a concentration between 0.1 and 2 mg/ml and kept at 4° C. Human lung fibroblasts (100 K cells/ml) and THP-1 macrophage (50 K cells/ml) cells were added to the gel during the liquid phase. The side of the membranes facing the chamber slab (e.g. 242 and 251) were treated with sulfo-sanpah to promote collagen/ECM anchorage. The lower channel slab, lower membrane, and chamber slab were stacked. The gel was then pipetted into the chamber (e.g., 231). After the upper membrane and upper channel slab was placed on top, the biomimetic organ model was clamped and the biomimetic organ model was placed in the incubator at 37° C. The biomimetic organ model was incubated for five days. For continuous perfusion of culture medium at 200 μL/hr in each channel, FGM-2 can be used as the medium having a reduced serum (e.g., between 0-2% and 2%).
In this study, the development of the organ injury model was examined. […]

The source of these data is US12534696B2, “Systems and methods for immobilizing extracellular matrix material on organ on chip, multilayer microfluidics microdevices, and three-dimensional cell culture systems” (THE TRUSTEES OF THE UNIVERSITY OF PENNSYLVANIA, priority 2015, dated 2026).

For the molecule `CC(C)(C)n1nc(-c2ccc(Cl)cc2)c2c(N)ncnc21` [PP2], the “effect on serum-induced fibrosis (FIG. 49)” value in the test with human lung fibroblasts [1] is recorded as “reduced fibrosis”.
In the case of sonic hedgehog [SHH], the “induction of fibrotic response (FIG. 48)” value with human lung fibroblasts [2] was “a fibrotic response can be induced”.
